This note sets out measurements from ChEMBL document CHEMBL1201862, “PubChem BioAssay data set” (2004).

What all share (assay): growth of human tumour cells (NCI), 48 h
Test [1] deals with A498.
Test [2] has as its system A549.
Test [3] deals with ACHN.
Test [4] concerns EKVX.
Test [5] relates to HOP-62.
The subject of test [6] is KM12.
In test [7] the test system is NCI-H23.
Test [8] relates to NCI-H522.
The test system of test [9] is SF-268.
The subject of test [10] is SK-MEL-2.
The test system of test [11] is SK-OV-3.
The test system of test [12] is SNB-78.
Test [13] relates to U-251.
In test [14] the test system is UACC-257.
In test [15] the test system is UO-31.

Each structure is given as a SMILES string.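 Compound exposure: 48 hours, 5 concentrations, 96-well plates. Abbreviation: GI50, concentration required for 50% inhibition of growth.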 The source made the active and inactive calls. Rule as the data show it: active = GI50 up to about 1.1 µM and inactive = higher. Bounds are passed on as bounds.

In the case of `O=C1OC(CCCl)(c2ccccc2)CC1CN1CCOCC1` (stereo not drawn), the GI50 is > 100 µM (inactive) in test [1]; 80.5 µM (inactive) in [2]; 32.2 µM (inactive) in [3]; 19.9 µM (inactive) in test [4]; 50.5 µM (inactive) in [5]; 20.2 µM (inactive) in test [6]. The GI50 in [7] is 8.95 µM (inactive); in test [8] it was 18.7 µM (inactive); in test [9], 41.4 µM (inactive); in test [10], 24.3 µM (inactive); in test [11] it was > 100 µM (inactive); in test [12] it was 26.2 µM (inactive). Also, the GI50 is > 100 µM (inactive) in test [13], 22.5 µM (inactive) in test [14] and 68.9 µM (inactive) in [15].
As for `COC(=O)N/N=C(/CCN1CCCC1)CC(c1ccccc1)c1c(O)c2ccccc2oc1=O` (stereo not drawn), the GI50 in test [1], in test [2], in [3], in test [4], in test [5] and in test [6] was > 100 µM (inactive) in each case. In addition, the GI50 in [7], in test [8], in test [9], in [10], in test [11] and in test [12] was > 100 µM (inactive) throughout. Also, the GI50 in test [13] is > 100 µM (inactive); in test [14] it was > 100 µM (inactive); in [15] it was 61.4 µM (inactive).
As to `O=c1cc2n(c(=O)[nH]1)C1OC(C(O)C1O)[C@H]2CCO` (stereo partly drawn), the GI50 in test [1], in test [2], in test [3], in test [4], in [5] and in test [6] was > 100 µM (inactive) throughout. Further, the GI50 in test [7], in test [8], in [9], in [10], in test [11] and in test [12] was > 100 µM (inactive) each time. The GI50 in test [13], in test [14] and in [15] was > 100 µM (inactive) each time.
As to `O=C(/N=C(/Nc1ccccc1)SCCS/C(=N\C(=O)c1ccccc1)Nc1ccccc1)c1ccccc1`, the GI50 in [1] is 58.7 µM (inactive); in test [2], 65.2 µM (inactive); in test [3], 55.7 µM (inactive); in test [4], > 100 µM (inactive); in test [5], 86.5 µM (inactive); in test [6] it was 62.5 µM (inactive). Besides, the GI50 in test [7] was 59.8 µM (inactive); in test [8], 22.2 µM (inactive); in test [9], 41.5 µM (inactive); in test [10] it was > 100 µM (inactive); in [12], > 100 µM (inactive); in [13], 79.8 µM (inactive). Further, the GI50 was 42.5 µM (inactive) in [14] and 32.9 µM (inactive) in test [15].
In the case of `O=C(c1ccccc1)[C@H]1Nc2ccc(Cl)cc2[C@H]2c3ccccc3O[C@H]21`, the GI50 in [1] was 12.1 µM (inactive); in test [2], 14.6 µM (inactive); in test [3], 15.2 µM (inactive); in [4], 15.2 µM (inactive); in test [5], 18.1 µM (inactive); in test [6], 16.1 µM (inactive). Besides, the GI50 in test [7] is 14.2 µM (inactive); in [8], 17.8 µM (inactive); in test [9], 18.1 µM (inactive); in [10] it was 13.5 µM (inactive); in test [12] it was 14.9 µM (inactive); in test [13], 15.6 µM (inactive). For the same molecule, the GI50 in test [14] was 2.45 µM (inactive); in [15], 5.27 µM (inactive).
As for `Nc1cccc2c1-c1c(cccc1[N+](=O)[O-])C2=O`, the GI50 in test [1], in [2], in test [4], in test [5], in test [6] and in test [7] was > 100 µM (inactive) in each case. Also, the GI50 in [8], in [9], in test [11], in test [12], in test [13] and in test [14] was > 100 µM (inactive) throughout. Moreover, the GI50 in test [15] is 0.108 µM (active).
As to `CC(C)/C=C1\CCC(CN2CCCC2)C1=O` (stereo not drawn), the GI50 was > 42.3 µM (inactive) in test [1]; 13.8 µM (inactive) in test [2]; 18.2 µM (inactive) in test [3]; 20.8 µM (inactive) in test [4]; > 87.5 µM (inactive) in [5]; 10 µM (inactive) in [6]. Also, the GI50 in test [7] is 16.7 µM (inactive); in test [8], 1.95 µM (inactive); in test [9] it was 22.3 µM (inactive); in test [10], 20.7 µM (inactive); in test [11] it was > 100 µM (inactive); in [12], 21 µM (inactive). Besides, the GI50 in [13] was 14.6 µM (inactive); in [14], 17.7 µM (inactive); in test [15] it was 18.5 µM (inactive).
For `O=C1NC2(CCCC2)/C(=N\O)C12CCCC2`, the GI50 in test [1], in test [2], in test [3], in test [4], in test [5] and in test [6] was > 100 µM (inactive) throughout. For the same molecule, the GI50 in [7], in [8], in test [9], in test [10], in test [11] and in test [12] was > 100 µM (inactive) throughout. In addition, the GI50 in test [13], in test [14] and in test [15] was > 100 µM (inactive) throughout.
For the molecule `COc1cccc(/C=N/C23CC4CC(CC(C4)C2)C3)c1`, the GI50 in test [1], in [2], in test [3], in test [4], in test [5] and in test [6] was > 100 µM (inactive) throughout. Also, the GI50 in test [7], in test [8], in test [9], in test [10], in [11] and in [12] was > 100 µM (inactive) throughout. The GI50 in test [13], in [14] and in [15] was > 100 µM (inactive) in each case.
For the molecule `COc1ccc(C2(CN(C)C)COc3cc(OC)c(OC)cc3C2=O)cc1OC` (stereo not drawn), the GI50 in test [1] is 74.8 µM (inactive); in [2], 69.8 µM (inactive); in [3] it was 89.5 µM (inactive); in [4], > 100 µM (inactive); in test [5], > 100 µM (inactive); in [6], 61.5 µM (inactive). Also, the GI50 in [7] is 32.7 µM (inactive); in test [8], 59.6 µM (inactive); in test [9], > 100 µM (inactive); in [11], > 100 µM (inactive); in test [12], 41.3 µM (inactive); in test [13], 45.9 µM (inactive). The GI50 was 49.1 µM (inactive) in test [14] and 44.8 µM (inactive) in test [15].
Take `CCOc1cn(C2OC(CO)C(O)C2O)c(=O)[nH]c1=O` (stereo not drawn): the GI50 in test [1], in test [2], in test [3], in [4], in [5] and in test [6] was > 100 µM (inactive) throughout. Further, the GI50 in test [7], in test [8], in test [9], in test [10], in [11] and in [12] was > 100 µM (inactive) each time. For the same molecule, the GI50 in [13] is 20.3 µM (inactive); in test [14], > 100 µM (inactive); in test [15], > 100 µM (inactive).
`CC(C)C1C(=O)NC(CO)Cc2c[nH]c3c(C(c4c[nH]c5ccccc45)C(O)CO)ccc(c23)N1C` (stereo not drawn): the GI50 in test [1] is 14.5 µM (inactive); in test [2] it was 23.5 µM (inactive); in test [3], 41.3 µM (inactive); in test [4], > 100 µM (inactive); in [6] it was > 100 µM (inactive); in test [7], > 100 µM (inactive). The GI50 in [8] was > 100 µM (inactive); in [9], > 100 µM (inactive); in test [10], > 100 µM (inactive); in [11], > 100 µM (inactive); in [12], 54.7 µM (inactive); in [14] it was > 100 µM (inactive). Moreover, in test [15], the GI50 was > 100 µM (inactive).
Consider `O=c1/c(=C/c2ccc(Cl)cc2Cl)sc2nc3ccccc3n12`, for which the GI50 in test [1], in test [2], in test [3], in test [4], in [5] and in [6] was > 100 µM (inactive) in each case. Further, the GI50 in test [7], in test [8], in [9], in test [10], in test [11] and in test [12] was > 100 µM (inactive) throughout. In addition, the GI50 in test [13], in test [14] and in [15] was > 100 µM (inactive) in each case.
As for `CCc1cccc(C)c1NC(=O)CCc1nnc(SC)o1`, the GI50 in test [1], in test [2], in test [3], in test [4], in test [5] and in test [6] was > 100 µM (inactive) throughout. Moreover, the GI50 in test [7], in [8], in test [9], in test [10], in test [11] and in [12] was > 100 µM (inactive) each time. The GI50 in test [13], in test [14] and in test [15] was > 100 µM (inactive) in each case.
